Laboratory results from paper PMC11653257, “Organometallic Half-Sandwich Complexes of 8-Hydroxyquinoline-Derived Mannich Bases with Enhanced Solubility: Targeting Multidrug Resistant Cancer” (Inorganic Chemistry, 2024).

Test: pKa of in situ prepared complexes by pH-potentiometry
Format: physicochemical
Conditions: I = 0.20 M KNO3
Excerpt: The results, shown in Table 2, indicate good agreement between the data obtained by the different methods. It should be noted that these processes show overlap in all cases, and therefore, the assignment of the pKa values to the given moieties cannot be made reliably. However, by comparing the spectral changes with those observed for HQ and other simple derivatives,[25] it can be concluded that the lower pKa likely belongs to the deprotonation of the aqua coligand.
The pH-potentiometric measurements were carried out at 25.0 ± 0.1 °C in water in the pH range between 2.0 and 11.5 and at a constant ionic strength of 0.20 M KNO3. The titrations were performed in a carbonate-free KOH solution (0.20 M). The exact concentrations of the HNO3 and KOH solutions were determined by pH-potentiometric titrations. An Orion 710A pH-meter equipped with a Metrohm combined electrode (type 6.0234.100) and a Metrohm 665 Dosimat buret were used for this purpose. […] The average water ionization constant, pKw, was determined as 13.76 ± 0.01, which is in good agreement with the literature data.[67] The initial volume of the samples was 10.0 mL. […] Samples were degassed by bubbling purified argon through them for about 10 min prior to the measurements, and the inert gas was also passed over the solutions during the titrations. The computer program Hyperquad2013[64] was utilized to establish the stoichiometry of the species and to calculate the equilibrium constants.

Substance: [RhCp*(HQCl-Pip)Cl]Cl [(3)]
- pKa (H2O): 9.39 ± 0.07
- pKa (Npyr/pipH+): 10.41 ± 0.10
